Source: ChEMBL document CHEMBL1138221, “Synthesis and evaluation of multisubstrate bicyclic pyrimidine nucleoside inhibitors of human thymidine phosphorylase” (J Med Chem, 2006)

Assay: Stability in acidic buffer at pH 1.0 in 37 degC
Type: physicochemical
Conditions: for Stability: buffer

| Stability | half-life (acidic buffer) [h] | SMILES |
| --- | --- | --- |
| Stable | – | Cc1cn([C@@H]2O[C@H](CO)[C@H]3C[C@@H](CP(=O)(O)O)O[C@H]32)c(=O)[nH]c1=O |
| – | 98 | Cc1cn([C@@H]2O[C@H](CO)[C@H]3O[C@@H](CP(=O)(O)O)O[C@H]32)c(=O)[nH]c1=O |
| Stable | – | Cc1cn([C@@H]2O[C@H](CO)[C@H]3C[C@H](CP(=O)(O)O)O[C@H]32)c(=O)[nH]c1=O |
| Stable | – | Cc1cn([C@@H]2O[C@H](CO)[C@H]3O[C@@H](CP(=O)(O)O)C[C@H]32)c(=O)[nH]c1=O |
